PMC9698773, “Design, Synthesis, Molecular Modeling, and Anticancer Evaluation of New VEGFR-2 Inhibitors Based on the Indolin-2-One Scaffold” (Pharmaceuticals, 2022)

Legend:
MCF-7 cell line = assay: MTT cytotoxicity assay, MCF-7; type: cell-based, human
Method: The cytotoxic activities against breast MCF-7 and liver HepG2 cancer cell lines for all the synthesized compounds 3a,b–17a,b were evaluated by MTT-based cytotoxicity assay. Sunitinib was selected as a reference standard in this study, and the results are presented as IC50 in Table 1.
The anticancer activities of the target compounds 3a,b–17a,b were quantitatively assessed using the MTT protocol against the MCF-7 and HepG2 cell lines, as described in the Supplementary Materials. […]
4.2. Biological investigation
4.2.1. In vitro cytotoxic activity assay
Citation: Abdelgawad, M.A.; Cell Line cells were obtained from the American Type Culture Collection. The cells Hayallah A.M.; Bukhari S.N.A.; were cultured using DMEM (Invitrogen/Life Technologies) supplemented with 10% FBS Musa A.; Elmowafy M.; (Hyclone,), 10 ug/ml of insulin (Sigma), and 1% penicillin‐streptomycin. All of the other Abdel‐Rahman, H.M.; chemicals and reagents were from Sigma or Invitrogen. Plate cells (cells density 1.2 – 1.8 Abd El‐Gaber, M.K. Design, × 10,000 cells/well) in a volume of 100μl complete growth medium + 100 μl of the tested Synthesis, Molecular Modeling, and compound per well in a 96‐well plate for 24 hours before the MTT assay. The tested com‐ Anticancer Evaluation of New pounds were dissolved in DMSO just before the test.
VEGFR‐2 Inhibitors Based on the Indolin‐2‐One Scaffold. 4.2.1.1. Cell culture protocol
Pharmaceuticals 2022, 15, x. The culture medium was removed to a centrifuge tube. The cell layer was briefly https://doi.org/10.3390/xxxxx rinsed with 5 mL of 0.25% (w/v) Trypsin and 3 mL of 0.53 mM EDTA solution to remove Academic Editor(s): Mary J. Meegan all traces of serum which contains Trypsin inhibitor. Next, 2.0 to 3.0 ml of Trypsin EDTA Received: 18 October 2022 solution was added to the flask and cells were observed under an inverted microscope Accepted: 9 November 2022 until the cell layer was dispersed (usually within 5 to 15 minutes). Then, 6.0 to 8.0 mL of Published: 14 November 2022 complete growth medium was added and cells aspirated by gently pipetting. The cell suspension was transferred to the centrifuge tube with the medium and cells from step 1, Publisher’s Note: MDPI stays neu‐and centrifuged at approximately 125 xg for 5 to 10 minutes. The supernatant was dis‐ tral with regard to jurisdictional carded and the cell pellet was suspended in fresh growth medium. Appropriate aliquots claims in published maps and institu‐ of the cell suspension were added to new culture vessels and incubated at 37°C for 24 hrs. tional affiliations. After treatment of cells with the serial concentrations of the compound to be tested, incu‐ bation was carried out for 48 h at 37 °C. The plates were examined under an inverted mi‐ croscope and proceeded for the MTT assay […]
Submitted for possible open access 4.2.1.2. […]
HepG‐2) were used in this test. At first, the cell lines were cultured in RPMI‐1640 medium Pharmaceuticals 2022, 15, x. https://doi.org/10.3390/xxxxx. www.mdpi.com/journal/pharmaceuticals […]
Pharmaceuticals 2022, 15, x FOR PEER REVIEW 2 of 22 with 10% fetal bovine serum. Antibiotics (100 units/ml penicillin and100 μg/ml strepto‐ mycin) were added at 37 °C in a 5% CO2 incubator. The cell lines were seeded in a 96‐well plate at a density of 1.0 x 10^4 cells / well at 37 °C for 48 h under 5% CO2. After incubation, the cells were treated with different concentrations of the synthesized compounds and incubated for 24 h. After 24 h of drug treatment, 20 μl of MTT solution (5mg/ml) was added and incubated for 4 h. 100 μl of dimethyl sulfoxide (DMSO) was added into each well to dissolve the formed purple formazan. The colored solution was measured and recorded at an absorbance of 570 nm using a plate reader (EXL 800, USA). The relative cell viability was calculated in percentage as (A570 of treated samples/A570 of untreated sam‐ ple) X 100. The half maximal inhibitory concentration (IC50) values were presented using […]

HepG2 cells = assay: Cell cycle analysis (PI staining, flow cytometry); type: cell-based, human; conditions: HepG2, 1.13 µM, 24 h
Method: The liver HepG2 cells were treated with 1.13 μM of 17a, and the effect on the cell cycle distribution was evaluated by flow cytometric analysis, as described in the Supplementary Materials. […]
4.2.3. Cell cycle analysis
To determine the role of the synthesized compounds in cell cycle distribution, cell cycle analysis was performed using propidium iodide (PI) staining and flow cytometry analysis for compound 17a. A Flow Cytometry Kit for Cell Cycle Analysis (ab139418_Pro‐ pidium Iodide Flow Cytometry Kit/BD) was used in this test. HepG2 cells were treated with compound 17a (1.13 μM) for 24 h. Then, the cells were fixed in 70% ethanol at 4 °C for 12 h. After that, the cells were washed with cold PBS, incubated with 100 μl RNase A at 37 °C for 30 min, and stained with 400 μ l PI in the dark at room temperature for a further 30 min. The stained cells were measured using a BD FACSCalibur™ Flow Cytometer, and the data were analyzed using Flowing software (version 2.5.1, Turku Centre for Biotech‐

Compound: O=C1Nc2ccccc2C1=Nc1ccc(C(=O)NNC(=S)Nc2ccccc2)cc1 [Compound 17a, 2-(4-((2-Oxoindolin-3-ylidene)amino)benzoyl)-N-phenylhydrazinecarbothioamide]
- IC50 (MCF-7 cell line; Homo sapiens, MCF7, MTT assay, mean ± SD of three experiments): 1440 ± 110 nM
- fold more potent than sunitinib, MCF-7 (MCF-7 cell line; ratio of IC50 to sunitinib): three-fold
- Cell Cycle Distribution %G0-G1 (HepG2 cells): 42.91%
- Cell Cycle Distribution %G2/M (HepG2 cells): 9.07%
- Cell Cycle Distribution %S (HepG2 cells): 48.02%
- Cell Cycle Distribution %pre G1 (HepG2 cells): 46.38%
- increase of cell population at S phase versus control (HepG2 cells): 1.43 fold
- phase of cell cycle arrest (HepG2 cells): S phase
